From patent US20220380310A1, “P2X7R ANTAGONISTS” (priority 2019, published 2022)

Tests used:
Format in all cases: cell-based
[1] = target: T1, Human P2X1 receptor (P2X1R) (Homo sapiens, UniProt P51575); assay: Receptor-mediated calcium entrance assay (Calcium Assay), P2X1R transfected HEK-293 cells; conditions: HEK293, compound at 5 μM, ATP 20 μM stimulus, read-out: Percentage of activity remains in the presence of the compound at 5 μM, P2X1R (Calcium Assay)
T1 construct: expressed in transfected cells; host or cells: HEK-293
T1 sequence (P51575 1-399): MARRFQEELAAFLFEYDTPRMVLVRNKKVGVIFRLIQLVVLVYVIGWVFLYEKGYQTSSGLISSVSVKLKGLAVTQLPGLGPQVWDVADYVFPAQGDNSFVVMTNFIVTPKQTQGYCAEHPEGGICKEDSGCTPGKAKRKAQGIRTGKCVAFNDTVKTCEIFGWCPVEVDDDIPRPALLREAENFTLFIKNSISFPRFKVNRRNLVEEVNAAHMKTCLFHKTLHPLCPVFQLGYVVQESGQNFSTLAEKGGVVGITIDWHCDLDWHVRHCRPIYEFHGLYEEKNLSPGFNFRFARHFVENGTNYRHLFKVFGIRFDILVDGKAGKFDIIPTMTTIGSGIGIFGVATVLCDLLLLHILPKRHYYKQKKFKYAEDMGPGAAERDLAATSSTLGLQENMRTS
Source text: (§1) Human P2X1 receptor (P2X1R) is a member of P2X family. […] Thus, the calcium assay was used. In the calcium assay, P2X receptor activation leads to opening of ion channels, which increases intracellular calcium concentration. The increased intracellular calcium concentration can be detected by a calcium indicator dye such as Fluo-4 or Fluo-8. Molecular Probes™ Fluo-4, AM (Cat. No. F14201 from Fisher Scientific) was used in the assay. The procedures were similar as described in the Yo-Pro-1 assay until day 4. The construct of P2X1R for transient transfection to HEK-293 cells was the courtesy from Dr. Richard J. Evans laboratory (J. Biol. Chem. 279:9043-9055). After transfection and expression, on day 4 cells were washed twice by Ca-HBSS (The composition (in mM) was NaCl 135, HEPES 10, D-glucose 10, KCl 5.4, CaCl2 2, and MgCl2 1, pH to 7.4 by NaOH) and incubated in dye loading solution (The solution contained 2.5 μM Fluo-4, 1 mM probenecid, and 1× PowerLoad (Cat. No. P10020 from Fisher Scientific) in Ca-HBSS) for 70 minutes at 37° C. Then the extracellular loading dye was washed away and cells were incubated at Ca-HBSS containing 1 mM probenecid for 30 minutes. Before the final steps, probenecid was washed away with Ca-HBSS. The assay was performed by adding 25 μl of Ca-HBSS followed by 25 μl of various test compounds. At this point, the base level of fluorescence was obtained through the microplate reading—the base microplate reading for this assay. At the end, the stimulus (ATP at 20 μM was the final concentration for P2X1R) was added to activate the P2X1R. Activation of P2X1R opened the channel to allow influx of calcium, which was represented by fluorescence increases that were measured by the microplate device with excitation at 475 nm and emission wavelength in the range of 500-550 nm. The data were analyzed the same way as described before: The result of each well was first normalized by its corresponding base microplate reading. Then, the negative control signal was subtracted from. In the negative control, the test compound and the stimulus were replaced by Ca-HBSS. […] An average of six highest values of the plate (AVG) were considered as 100% and the value of each well was divided by AVG and presented as the relative values in percentages.

[2] = target: T2, P2X2R (Homo sapiens, UniProt Q9UBL9); assay: Receptor-mediated calcium entrance assay (Calcium Assay), P2X2R; conditions: compound at 5 μM, read-out: Percentage of activity remains in the presence of the compound at 5 μM, P2X2R (Calcium Assay)
T2 construct: expressed in transfected cells; host or cells: HEK-293
T2 sequence (Q9UBL9 1-471): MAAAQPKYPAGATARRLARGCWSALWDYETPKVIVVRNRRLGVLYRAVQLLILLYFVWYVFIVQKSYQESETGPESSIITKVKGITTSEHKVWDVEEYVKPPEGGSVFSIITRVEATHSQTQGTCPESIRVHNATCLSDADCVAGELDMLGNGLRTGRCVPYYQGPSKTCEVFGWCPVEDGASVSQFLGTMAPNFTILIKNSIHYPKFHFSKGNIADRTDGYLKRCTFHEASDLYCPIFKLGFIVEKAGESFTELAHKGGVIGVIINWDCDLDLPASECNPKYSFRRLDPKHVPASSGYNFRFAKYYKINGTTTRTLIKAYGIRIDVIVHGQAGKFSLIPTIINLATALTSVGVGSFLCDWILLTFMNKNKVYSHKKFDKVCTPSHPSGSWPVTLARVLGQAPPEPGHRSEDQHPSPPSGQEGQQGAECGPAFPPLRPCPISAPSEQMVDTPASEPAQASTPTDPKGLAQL

[3] = target: T3, Human P2X4 receptor (P2X4R) (Homo sapiens, UniProt Q99571); assay: Receptor-mediated calcium entrance assay (Calcium Assay), P2X4R transfected HEK-293 cells; conditions: HEK293, compound at 5 μM, 1 mM ATP stimulus, read-out: Percentage of activity remains in the presence of the compound at 5 μM, P2X4R (Calcium Assay)
T3 construct: expressed in transfected cells; host or cells: HEK-293
T3 sequence (Q99571 1-388): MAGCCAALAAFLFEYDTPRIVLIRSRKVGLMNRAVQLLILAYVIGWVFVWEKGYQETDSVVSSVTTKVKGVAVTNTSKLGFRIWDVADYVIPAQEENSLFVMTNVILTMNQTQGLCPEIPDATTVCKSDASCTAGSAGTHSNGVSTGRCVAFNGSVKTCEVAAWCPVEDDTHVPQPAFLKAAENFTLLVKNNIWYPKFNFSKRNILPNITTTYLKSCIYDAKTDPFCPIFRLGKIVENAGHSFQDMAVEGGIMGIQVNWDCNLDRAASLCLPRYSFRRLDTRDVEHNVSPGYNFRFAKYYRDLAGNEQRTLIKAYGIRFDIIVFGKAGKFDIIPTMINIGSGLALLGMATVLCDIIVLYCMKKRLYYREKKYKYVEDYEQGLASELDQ
Source text: as §1
Human P2X4 receptor (P2X4R) construct (J. Biol. Chem. 290, 7930-7942) was transiently transfected to HEK-293 cells and the calcium assay was performed as described above. When 1 mM ATP was used as stimulus, an increased receptor mediated activity leading to intracellular calcium elevation can be seen in less than 10 minutes.

remaining activity at 5 µM [1] [%] | remaining activity at 5 µM [2] [%] | remaining activity at 5 µM [3] [%] | Structure (SMILES)
66.3 | 62.7 | 55.8 | O=C(CCc1ccccc1)NC1CCCN(S(=O)(=O)c2ccc(N3CCC(C(F)(F)F)CC3)cc2)C1 (stereo not drawn) [#42]
57.1 | 56 | 48.4 | O=C(CCc1ccccc1)NC1CCCN(S(=O)(=O)c2ccc(F)c(Cl)c2)C1 (stereo not drawn) [#43]
40.5 | 83 | 63.5 | CC1CCCN(c2ccc(S(=O)(=O)N3CCCC(NC(=O)CCc4ccccc4)C3)cc2)C1 (stereo not drawn) [#44]
52 | 49.4 | 61.9 | O=C(CCc1ccccc1)NC1CCCN(S(=O)(=O)c2ccc(N3CCCCC3)c(Cl)c2)C1 (stereo not drawn) [#45]
67.7 | 71 | 75 | O=C(CCc1ccccc1)NC1CCCN(S(=O)(=O)c2ccc(N3CCC(F)(F)CC3)cc2)C1 (stereo not drawn) [#46]
50.1 | 65.6 | 93.3 | CC1CCCCN1c1ccc(S(=O)(=O)N2CCCC(NC(=O)CCc3ccccc3)C2)cc1 (stereo not drawn) [#47]
65.8 | 82.6 | 35.3 | CC(C)N(C(C)C)S(=O)(=O)c1ccc(N2CCCC(NC(=O)CCc3ccccc3)C2)cc1 (stereo not drawn) [#49]
47.8 | 67.2 | 84.3 | O=C(CCc1ccccc1)NC1CCCN(c2ccc(S(=O)(=O)Nc3ccccc3)cc2)C1 (stereo not drawn) [#50]
63.1 | 81.2 | 71.3 | O=C(CCc1ccccc1)NC1CCCN(c2ccc(S(=O)(=O)NC3CCCCC3)cc2)C1 (stereo not drawn) [#51]
63.4 | 72.3 | 52.8 | O=C(CCc1ccccc1)NC1CCCN(c2ccc(S(=O)(=O)NCc3ccco3)cc2)C1 (stereo not drawn) [#52]
66.2 | 58 | 49.7 | NS(=O)(=O)c1ccc(N2CCCC(NC(=O)CCc3ccccc3)C2)cc1 (stereo not drawn) [#53]
48.4 | 59.4 | 63.3 | O=C(CCc1ccccc1)NC1CCCN(c2ccc(S(=O)(=O)N3CCCCC3)cc2)C1 (stereo not drawn) [#54]
53.8 | 52.7 | 37.7 | O=C(CCc1ccccc1)NC1CCCN(c2ccc(S(=O)(=O)N3CCCC3)cc2)C1 (stereo not drawn) [#55]

Continued, compound first:

Structure (SMILES) | remaining activity at 5 µM [1] [%] | remaining activity at 5 µM [2] [%] | remaining activity at 5 µM [3] [%]
O=C(CCc1ccccc1)N1CCN(S(=O)(=O)c2ccc(NC3CCCCC3)cc2)CC1 [#33] | 44.9 | 83.6 | 83.9
O=C(CCc1ccccc1)N1CCN(S(=O)(=O)c2ccc(N3CCCCC3)cc2)CC1 [#34] | 59.3 | 65.2 | 53.8
O=C(CCc1ccccc1)N1CCN(S(=O)(=O)c2ccc(N3CCCC3)cc2)CC1 [#35] | 56.3 | 43.7 | 70.7
CC(C)(C)OC(=O)N1CCN(c2ccc(S(=O)(=O)N3CCCC(C(=O)NCCc4ccccc4)C3)cc2)CC1 (stereo not drawn) [#36] | 49 | 49.4 | 72.2
CCOc1ccc(S(=O)(=O)N2CCCC(NC(=O)CCc3ccccc3)C2)cc1 (stereo not drawn) [#37] | 55.4 | 90.3 | 54.8
O=C(CCc1ccccc1)NC1CCCN(S(=O)(=O)c2ccc(N3CCC(Oc4ccccc4)CC3)cc2)C1 (stereo not drawn) [#38] | 43.8 | 52.2 | 71.1
CC(C)OC1CCN(c2ccc(S(=O)(=O)N3CCCC(NC(=O)CCc4ccccc4)C3)cc2)CC1 (stereo not drawn) [#39] | 74.5 | 86.6 | 68.2
CC1CCN(c2ccc(S(=O)(=O)N3CCCC(NC(=O)CCc4ccccc4)C3)cc2)CC1 (stereo not drawn) [#40] | 39 | 73.5 | 62.9
CC(C)(C)OC(=O)N1CCC(C2CCN(c3ccc(S(=O)(=O)N4CCCC(NC(=O)CCc5ccccc5)C4)cc3)CC2)CC1 (stereo not drawn) [#41] | 46.7 | 61.1 | 39.9
